Tested on: S. aureus ATCC 6538
Assay: quantitative suspension assay of mono-substances
Assay type: cell-based, Staphylococcus aureus
Conditions: for Number of CFUs: initial cell load 9.9 × 10^4 CFU/ml; for antimicrobial effect, summary in words: detection limit of the assay 100 CFU/ml
Description: A stock solution was prepared by adding 0.1 ml methanol to 10.48 mg of hydroxytyrosol. After dissolving of the compound, the solution was quantitatively transferred into 4.9 ml water for injection (WFI), effective concentration of hydroxytyrosol: 2.0 mg/ml.
Using the stock solution, five (5) concentrations of hydroxytyrosol in a geometric series of 2 mg hydroxytyrosol/ml to 0.125 mg hydroxytyrosol/ml were tested in a quantitative suspension assay.
2 ml of the stock solution and the dilutions (V1 to V4), respectively, and a methanol-solution of 2% as a positive control were inoculated with 0.1 ml of a test suspension of S. aureus ATCC 6538, adjusted to about 2.0×10^5 CFU/0.1 ml, resulting in about 100,000 CFU/ml in the individual assays.
Samples (0.1 ml) were then taken at t 0, 12, 30, and 60 minutes as well as t 24 48, and 72 hours after inoculation and culturing at between 20-25° C., and were diluted with 0.9 ml of 0.9% NaCl solution. The samples were plated on blood agar plates, and incubated up to 5 days at between 30-35° C.
A stock solution was prepared at a concentration of 2 mg/ml of oleocanthal. The compound was dissolved by in ethanol (99.8%) and WFI was added.
Using the stock solution, concentrations of oleocanthal in a geometric series of 1 mg oleocanthal/ml to 0.125 mg oleocanthal/ml were tested in a quantitative suspension assay.
2 ml of the stock solution and the dilutions (V1 to V4), respectively, and a ethanol-solution of 2.85% as a positive control were inoculated with 0.055 ml of a test suspension of S. aureus ATCC 6538, adjusted to about 3.6×10^5 CFU/0.1 ml, resulting in about 99,000 CFU/ml in the individual assays.
A stock solution was prepared at a concentration of 1 mg/ml of oleacin. The compound was dissolved by in ethanol (99.8%) and WFI was added.
Using the stock solution, concentrations of oleacin at 0.25 mg oleacin/ml and 0.125 mg oleacin/ml were tested in a quantitative suspension assay.
2 ml of the stock solution and the dilutions (V1 and V2), respectively, and a ethanol-solution of 0.44% as a positive control were inoculated with 0.055 ml of a test suspension of S. aureus ATCC 6538, adjusted to about 3.5×10^5 CFU/0.1 ml, resulting in about 99,000 CFU/ml in the individual assays.
A stock solution was prepared by adding 0.1 ml chloroform to 25 mg of uvaol. After dissolving of the compound, the solution was quantitatively transferred into 12.4 ml water for injection (WFI), effective concentration of uvaol: 2.0 mg/ml.
Using the stock solution, five (5) concentrations of uvaol in a geometric series of 2 mg uvaol/ml to 0.125 mg uvaol/ml were tested in a quantitative suspension assay.
2 ml of the stock solution and the dilutions (V1 to V4), respectively, and a chloroform-solution of 0.8% as a positive control were inoculated with 0.1 ml of a test suspension of S. aureus ATCC 6538, adjusted to about 2.0×10^5 CFU/0.1 ml, resulting in about 100,000 CFU/ml in the individual assays.
A stock solution was prepared by adding 0.1 ml chloroform to 10.45 mg of erythrodiol. After dissolving of the compound, the solution was quantitatively transferred into 4.9 ml water for injection (WFI), effective concentration of erythrodiol: 2.0 mg/ml.
2 ml of the stock solution and the dilutions (V1 to V4), respectively, and a chloroform-solution of 2% as a positive control were inoculated with 0.1 ml of a test suspension of S. aureus ATCC 6538, adjusted to about 3.6×10^5 CFU/0.1 ml, resulting in about 100.000 CFU/ml in the individual assays.

## CC=C(C=O)C(CC=O)CC(=O)OCCc1ccc(O)c(O)c1 (stereo in doubt) [oleacin]
0.125 Oci/ml, t 0 min
  Number of CFUs: 4.3 × 10^3 CFU/ml
0.125 Oci/ml, t 12 min
  Number of CFUs: <100 CFU/ml
0.125 Oci/ml, t 30 min
  Number of CFUs: <100 CFU/ml
0.125 Oci/ml, t 60 min
  Number of CFUs: <100 CFU/ml
0.125 Oci/ml, t 24 h
  Number of CFUs: <100 CFU/ml
0.125 Oci/ml, t 48 h
  Number of CFUs: <100 CFU/ml
0.125 Oci/ml, t 72 h
  Number of CFUs: <100 CFU/ml
0.25 Oci/ml, t 0 min
  Number of CFUs: 1.8 × 10^3 CFU/ml
0.25 Oci/ml, t 12 min
  Number of CFUs: <100 CFU/ml
0.25 Oci/ml, t 30 min
  Number of CFUs: <100 CFU/ml
0.25 Oci/ml, t 60 min
  Number of CFUs: <100 CFU/ml
0.25 Oci/ml, t 24 h
  Number of CFUs: <100 CFU/ml
0.25 Oci/ml, t 48 h
  Number of CFUs: <100 CFU/ml
0.25 Oci/ml, t 72 h
  Number of CFUs: <100 CFU/ml
  antimicrobial effect, summary in words: immediate effect at the concentrations tested

## C/C=C(/C=O)[C@@H](CC=O)CC(=O)OCCc1ccc(O)cc1 [oleocanthal]
0.125 Ole/ml, t 0 min
  Number of CFUs: 2.0 × 10^4 CFU/ml
0.125 Ole/ml, t 12 min
  Number of CFUs: 1.6 × 10^4 CFU/ml
0.125 Ole/ml, t 30 min
  Number of CFUs: 1.6 × 10^4 CFU/ml
0.125 Ole/ml, t 60 min
  Number of CFUs: 1.1 × 10^4 CFU/ml
0.125 Ole/ml, t 24 h
  Number of CFUs: 5.4 × 10^3 CFU/ml
0.125 Ole/ml, t 48 h
  Number of CFUs: <100 CFU/ml
0.125 Ole/ml, t 72 h
  Number of CFUs: <100 CFU/ml
0.25 Ole/ml, t 0 min
  Number of CFUs: 1.7 × 10^4 CFU/ml
0.25 Ole/ml, t 12 min
  Number of CFUs: 1.8 × 10^4 CFU/ml
0.25 Ole/ml, t 30 min
  Number of CFUs: 2.0 × 10^4 CFU/ml
0.25 Ole/ml, t 60 min
  Number of CFUs: 1.6 × 10^4 CFU/ml
0.25 Ole/ml, t 24 h
  Number of CFUs: 7.2 × 10^3 CFU/ml
0.25 Ole/ml, t 48 h
  Number of CFUs: 8.3 × 10^3 CFU/ml
0.25 Ole/ml, t 72 h
  Number of CFUs: <100 CFU/ml
0.5 Ole/ml, t 0 min
  Number of CFUs: 8.3 × 10^3 CFU/ml
0.5 Ole/ml, t 12 min
  Number of CFUs: 6.1 × 10^3 CFU/ml
0.5 Ole/ml, t 30 min
  Number of CFUs: 5.1 × 10^3 CFU/ml
0.5 Ole/ml, t 60 min
  Number of CFUs: 2.4 × 10^3 CFU/ml
0.5 Ole/ml, t 24 h
  Number of CFUs: <100 CFU/ml
0.5 Ole/ml, t 48 h
  Number of CFUs: <100 CFU/ml
0.5 Ole/ml, t 72 h
  Number of CFUs: <100 CFU/ml
1.0 Ole/ml, t 0 min
  Number of CFUs: <100 CFU/ml
1.0 Ole/ml, t 12 min
  Number of CFUs: <100 CFU/ml
1.0 Ole/ml, t 30 min
  Number of CFUs: <100 CFU/ml
1.0 Ole/ml, t 60 min
  Number of CFUs: <100 CFU/ml
1.0 Ole/ml, t 24 h
  Number of CFUs: <100 CFU/ml
1.0 Ole/ml, t 48 h
  Number of CFUs: <100 CFU/ml
1.0 Ole/ml, t 72 h
  Number of CFUs: <100 CFU/ml
2.0 Ole/ml, t 0 min
  Number of CFUs: <100 CFU/ml
2.0 Ole/ml, t 12 min
  Number of CFUs: <100 CFU/ml
2.0 Ole/ml, t 30 min
  Number of CFUs: <100 CFU/ml
2.0 Ole/ml, t 60 min
  Number of CFUs: <100 CFU/ml
2.0 Ole/ml, t 24 h
  Number of CFUs: <100 CFU/ml
2.0 Ole/ml, t 48 h
  Number of CFUs: <100 CFU/ml
2.0 Ole/ml, t 72 h
  Number of CFUs: <100 CFU/ml
  antimicrobial effect, summary in words: immediate effect at the higher concentrations

Source: US20220395549A1, “COMPOSITIONS OF THE OLEA EUROPAEA V. SYLVESTRIS WITH ANTIMICROBIAL EFFICACY” (TAPROGGE GMBH, priority 2019, published 2022)
